Test results as given in PMC6874132, “Biosensors Show the Pharmacokinetics of S-Ketamine in the Endoplasmic Reticulum” (Frontiers in Cellular Neuroscience, 2019).
Values joined by “and” are separate entries in the source; they are usually repeats but may differ in a detail not shown here. Equal values may be shown once.

What was measured:
[1] = system: iSketSnFR constructs; assay: Activation of the iSketSnFR constructs by a permanently charged analog; type: biochemical
Procedure: (§1) Biosensors selected for further study were purified with the His6 sequence included in the bacterial expression vector (Shivange et al., [2019]). Proteins were purified by immobilization in phosphate-buffered saline (PBS), pH 7.4, and elution in an imidazole gradient (10–200 mM). Proteins were concentrated by centrifugation through a 30 kDa cut off column, and by dialysis against PBS. The dialyzed protein was quantified using a nanodrop spectrofluorometer, and 50 or (preferably) 100 nM was used in dose-response studies to characterize responses to various ligands. Dose-response relations for ligands were conducted with the plate reader. The pH-dependent dose-response studies with purified iSketSnFR constructs were performed using 3× PBS buffers.
The permanently charged nicotine analog, N’-methylnicotinium, previously provided additional insights for the iNicSnFR family (Shivange et al., [2019]).

[2] = system: iSketSnFR2 (AK8); assay: Dose-response of purified iSketSnFR2 (AK8) biosensor fluorescence; type: biochemical
Procedure: (§2) A Tecan Spark M10 96-well fluorescence plate reader (equipped with appropriate filters) was used to measure resting and S-ketamine-induced fluorescence (F0 and ΔF, respectively). Bacterial lysates were tested with excitation at 485 nm and emission at 535 nm. Promising clones were amplified and sequenced.
as §1
(§3) We introduce a convenient metric to summarize progress in evolving increasingly sensitive fluorescent biosensors for drugs. The metric, the S-slope, is especially appropriate for low drug concentrations because it corresponds to the relationship between [drug] and ΔF at the beginning of the dose-response relation. We define the S-slope for use with intensity-based drug biosensors:
(§4) S−slope = Δ(F/F0)/(Δ[drug]).
(§5) We state the S-slope in units of μM^−1.
(§6) This article uses the S-slope for measurements on S-ketamine biosensors in bacterial lysates, with purified proteins, and expressed in cells. […] In this case, we calculated (as in Figure 2A below),

[3] = system: iSketSnFR1 (AK2); assay: Dose-response of purified iSketSnFR1 (AK2) biosensor fluorescence; type: biochemical
Procedure: as §2, §1, §3, §4, §5, §6

[4] = system: AK1; assay: S-ketamine dose-response of biosensor construct AK1; type: biochemical; settings: at 1 μM S-ketamine; Gly residue at position 357
Excerpt: Starting with the iNicSnFR biosensor constructs (Shivange et al., [2019]), we constructed and measured ~3,000 mutants, in iterative rounds of site-saturated mutagenesis (SSM). We utilized the Quikchange mutagenesis protocol (Agilent), including a mixture of three primers, creating 22 unique codons encoding the 20 canonical amino acids (Kille et al., [2013]). The 22-codon procedure yields an estimated >96% residue coverage for a collection of 96 randomly chosen clones.
as §2, with “sequenced. […]” for “sequenced.”
Biosensors selected for further study were purified with the His6 sequence included in the bacterial expression vector (Shivange et al., [2019]). […] The dialyzed protein was quantified using a nanodrop spectrofluorometer, and 50 or (preferably) 100 nM was used in dose-response studies to characterize responses to various ligands. Dose-response relations for ligands were conducted with the plate reader. […]
as §6

[5] = system: iSketSnFR1_PM or iSketSnFR1_ER; assay: Time-resolved fluorescence in Neuro2a cells transfected with iSketSnFR1 constructs; type: cell-based; settings: 20 s pulses (Figure 4), read-out: half-maximal concentration of S-ketamine
Excerpt: (§7) We constructed two variants of the iSKetSnFR1 and iSketSnFR2 biosensors for expression in mammalian cells. The plasma membrane (_PM) and endoplasmic reticulum (_ER) variants were constructed by a circular polymerase extension cloning procedure. For iSketSnFR1_PM and iSKetSnFR2_PM, we cloned the bacterial constructs into pCMV(MinDis), a variant of pDisplay (Invitrogen, Carlsbad, CA, USA) lacking the hemagglutinin tag (Marvin et al., [2013]). We modified the previous transmembrane domain (Shivange et al., [2019]) as follows. […]
(§8) We find that signals with the iSKetSnFR constructs have brightness similar to those of the previous iNicSnFR cpGFP-based biosensors for nicotine (Shivange et al., [2019]), but the dynamic range is somewhat lower for the iKetSnFRs. […] Fluorescence measurements at λex = 470 nm have been described (Shivange et al., [2019]). […] PM-directed constructs were measured with a region of interest (ROI) that included only the cell periphery.
(§9) Solutions were delivered from elevated reservoirs by gravity flow, through solenoid valves (Automate Scientific, Berkeley, CA, USA), then through tubing fed into a manifold, at a rate of 1–2 ml/min. […] As usual in fluorescence imaging experiments, we excluded data from the brightest cells, because these may have fluorescent impurities or aggregates that produce a rapidly bleaching baseline. […]

[6] = system: iSketSnFR2_PM; assay: Time-resolved fluorescence in Neuro2a cells transfected with iSketSnFR2_PM; type: cell-based
Excerpt: as §7, §8, §9

[7] = system: iSketSnFR2_ER; assay: Time-resolved fluorescence in Neuro2a cells transfected with iSketSnFR2_ER; type: cell-based
Excerpt: as §7, §8, §9

[8] = system: iSketSnFR1_PM; assay: Time-resolved fluorescence in iPSC-derived dopaminergic neurons transfected with iSketSnFR1_PM; type: cell-based, human; settings: Figure 6C, dopaminergic neurons differentiated from iPSCs, average of five cells
Excerpt: as §7, with “follows. We replaced the terminal KKPR of the PDGF receptor (a putative ER retention motif) with KYLQKRRERRRQ (a p14 Golgi export motif) and ENANSFCYENEVAL (a putative Kir2.X ER export motif).” for “follows.”
(§10) Fujifilm CDI^2 (formerly named Cellular Dynamics International, Madison WI, USA), furnished iCell DopaNeurons. […] The supplier has measured that 89% of the cells are positive for tyrosine hydroxylase by fluorescence-activated cell sorting. […]
as §8, with “periphery. […]” for “periphery.”

[9] = system: iSketSnFR1_ER; assay: Time-resolved fluorescence in iPSC-derived dopaminergic neurons transfected with iSketSnFR1_ER; type: cell-based, human; settings: Figure 6C, dopaminergic neurons differentiated from iPSCs, average of five cells
Excerpt: as §7, with “follows. We replaced the terminal KKPR of the PDGF receptor (a putative ER retention motif) with KYLQKRRERRRQ (a p14 Golgi export motif) and ENANSFCYENEVAL (a putative Kir2.X ER export motif).” for “follows.”
as §10
as §8, with “periphery. […]” for “periphery.”

[10] = system: iNicSnFR1, iNicSnFR2, and iNicSnFR3a, as well as 12 other biosensors in the series; assay: Fluorescence test against iNicSnFR biosensors; type: biochemical; settings: at concentrations <100 μM
Procedure: as §2, with “sequenced. The most sensitive construct in each round of SSM was used as a template for the next round of SSM.” for “sequenced.”
We tested S-ketamine and R-ketamine (Figure 1) against iNicSnFR1, iNicSnFR2, and iNicSnFR3a, as well as against 12 other biosensors in the series that led to the iNicSnFRs (Shivange et al., [2019]).

[11] = system: endoplasmic reticulum (ER); assay: Subcellular pharmacokinetics: S-ketamine in the endoplasmic reticulum measured with ER- and PM-targeted biosensors; type: cell-based; settings: Neuro2a cells and human dopaminergic neurons differentiated from iPSCs
Excerpt: as §7, §8, §9

[12] = after which rapid antidepressant effects occur; ref Lester et al., 2012; Janssen Research and Development, 2019; cited from earlier work
[13] = Figure 2B1, purified protein, pH 7.0, 3× PBS, Hill fit
[14] = Figure 2B2, purified protein, pH 7.0, 3× PBS, Hill fit
[15] = Figure 5C, sub-μM S-ketamine, linear fit, average of 10 cells
[16] = [S-ketamine] <1 μM, mean ± SD, 25 total cells from two independent transfections

**Q.** Which “activation of the iSketSnFR constructs” value [1] does the source give for C[N+](C)(C)[C@]1(c2ccccc2Cl)CCCCC1=O [N,N-dimethyl-S-ketamine] here?
**A.** did not produce robust activation

**Q.** Which results are given for CN[C@@]1(c2ccccc2Cl)CCCCC1=O [R-ketamine]?
**A.** concentrations giving detectable responses [2]: > 100 µM; S-slope lower than that of S-ketamine ([2]; at iSketSnFR2): at least 100 fold

**Q.** What does the source list for CN[C@]1(c2ccccc2Cl)CCCCC1=O [S-ketamine]?
**A.** S-Ketamine Dose-Response S-slope ([3]; Figure 2A, purified protein): 0.32 µM⁻¹; EC50 [3, 13]: 10.7 ± 1.5 µM; ΔFmax/F0 [3, 13]: 3.4 ± 0.1; expected response ΔF/F0 in vitro ([3]; to 1 μM S-ketamine, expected from S-slope): 0.32; S-Ketamine Dose-Response S-slope ([2]; Figure 2A, purified protein): 1.87 µM⁻¹ and 1.9 µM⁻¹; EC50 [2, 14]: 1.16 ± 0.6 µM; ΔFmax/F0 [2, 14]: 3.0 ± 0.3; S-slope ([2]; Figure 7A, in solution, λEx = 400 nm, pH 7): -0.23 µM⁻¹; S-slope = delta(F/F0)/(delta[S-ketamine]) ([2]; in solution (abstract)): 1.9 µM⁻¹; [S-slope] (magnitude) ([2]; λex = 400 nm, purified protein, pH range 6 to 8.5 (Supplementary Figure S2)): ≤ 0.3; ΔF/F0 [4]: ~ 0.12; EC50 [5]: ~10 µM; S-slope [6, 15]: 0.49 µM⁻¹; S-slope [6, 16]: 0.42 ± 0.14 µM⁻¹; S-slope [7, 15]: 0.26 µM⁻¹; S-slope [7, 16]: 0.29 ± 0.04 µM⁻¹; S-slope [8]: 0.099 µM⁻¹ and 0.1 µM⁻¹; S-slope [9]: 0.111 µM⁻¹; fluorescence increase activated by ligand [10]: no detectable fluorescence increase; time for entry into the ER after appearing in the external solution [11]: within a few seconds; time to leave the ER after removal from the extracellular solution [11]: within a few seconds; peak blood plasma concentrations [12]: 0.2 to 1 µM
